These are literature values, as cited in patent US20200113872A1, “Ifetroban Treatment for Systemic Sclerosis” (Cumberland Pharmaceuticals Inc., priority 2016, published 2020).

The data set relates to pulmonary artery banded mice.

On to `CCCCCNC(=O)c1coc([C@H]2[C@@H](Cc3ccccc3CCC(=O)O)[C@@H]3CC[C@H]2O3)n1` [ifetroban, [1S-(1α,2α,3α,4α)]-2-[[3-[4-[(Pentylamino)carbonyl]-2-oxazolyl]-7-oxabicyclo[2.2.1]hept-2-yl]methyl]-benzenepropanoic acid], for which the “right ventricular expression of anti-fibrotic and muscularization genes” value is recorded as “augmented”. Also, the “ratio of the early (E) to late (A) ventricular filling velocities (E/A ratio)” value (one indicator of cardiac efficiency) is reported as “increased”. The “expression of genes associated with inflammation” value (right ventricle) is “decreased”. Besides, under “treatment with ifetroban”, the cardiomyocyte hypertrophy result is recorded as “reduced” and the right ventricular fibrosis entry is recorded as “reduced”.
